Results as given in US20250092032A1, “DEOXYCYTIDINE KINASE INHIBITORS” (CENTRE NATIONAL DE LA RECHERCHE SCIENTIFIQUE, priority 2022, published 2025).

How the values were obtained:
dCK = target: T1, dCK (Homo sapiens, UniProt P27707, C45S/C59S/C9S/S74E); test: Affinity assay: Thermal Shift Assay (TSA), dCK thermal stabilization; type: binding; conditions: dCK protein (C9S, C45S, C59S, S74E); 5 sM of protein, 50 sM of compound, 2% DMSO; mean ± SD
T1 construct: inferred from HisTrap purification with imidazole elution; made in house; host or cells: Escherichia coli BL21 pRIL
T1 sequence (P27707 whole entry C9S/C45S/C59S/S74E): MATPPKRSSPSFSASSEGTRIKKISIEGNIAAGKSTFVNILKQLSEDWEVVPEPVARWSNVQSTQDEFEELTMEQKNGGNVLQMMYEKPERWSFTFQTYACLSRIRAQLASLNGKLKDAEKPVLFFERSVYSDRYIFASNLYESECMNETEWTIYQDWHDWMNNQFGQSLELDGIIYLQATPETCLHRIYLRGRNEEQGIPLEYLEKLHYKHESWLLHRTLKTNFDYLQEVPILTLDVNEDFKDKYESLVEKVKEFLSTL
Protocol: dCK protein contained three solvent exposed cysteines mutated to serines in order to generate better quality crystals (C9S, C45S, C59S) and a serine mutated to glutamic acid (S74E). The S74E mutation mimics the phosphorylated state of this serine, which favors the open conformation of the enzyme, making it competent for nucleoside binding to evaluate the binding affinity with compounds. BL21 pRIL Escherichia Coli cells were transformed with dCK-plasmid. Cells were grown in LB media containing 100 μg/ml ampicillin and 34 μg/ml chloramphenicol at 18° C. for 20 h after induction with 1 mM IPTG. Cells were re-suspended in 50 mM TRIS, pH 8, 500 mM NaCl, 30 mM imidazole and 10% glycerol buffer containing one EDTA free anti-protease tablet (Roche). After sonication and centrifugation (30,000×g), the supernatant was loaded on a 5 ml HisTrap FF column (GE healthcare) pre-equilibrated with resuspension buffer. Protein was then eluted by re-suspension buffer containing 500 mM imidazole. Protein eluted fractions were mixed and concentrated. Protein was further purified by size exclusion chromatography (superdex 200 16/600, GE healthcare) in 20 mM HEPES, pH 7.5, and 200 mM NaCl before concentration to 30 mg/ml and storage at −80° C.
Thermal Shift Assay (TSA) experiments were performed in triplicate in 384-well PCR white plates (Thermo Scientific, AB-3384) in the assay buffer containing 20 mM HEPES, pH 7.5 and 200 mM NaCl. Final concentrations were adjusted to 5 sM of protein, 50 sM of compound (final 2% DMSO) and dye diluted to 1:1000, as recommended by manufacturer (Protein Thermal Shift Dye, ThermoFisher Scientific). […] Plates were centrifuged at 1000 rpm for 2 min at 4° C. Thermal melting experiments were carried using a CFX-384 Connect RT-PCR (Bio-Rad). Plates were first equilibrated at 25° C.; then, the plates were heated from 25 to 95° C. by 0.5° C./min steps. Raw fluorescence data were treated, and the melting temperatures (Tm) were calculated using CFX Manager 3.1 software (Bio-Rad). ΔTm represents the difference in Tm between the protein in the presence of compound and the protein alone (both at 2% DMSO). Each experiment was performed at least twice (with technical triplicates) and data are presented as the mean f SD in Table 1.

[1] = tested on: CCRF-CEM cell line (T-cell acute lymphoblastic leukemia); test: Cellular assay: inhibition of CCRF-CEM cell proliferation in presence of dT and dC (CellTiter-Blue); type: cell-based; conditions: Homo sapiens, read-out: CELLULAR ASSAY IC50 (nM), 200 μM dT and 1 μM dC, 72 hours, mean ± SD
Protocol: The cellular assay was set up to assess the ability to inhibit dCK activity in a cellular model. The model was developed with a T-cell acute lymphoblastic leukemia cell line (CCRF-CEM), because of its high dependence on the salvage pathway, thus on dCK activity. Cellular assays were performed to assess the inhibition of cell proliferation under two conditions: i) in the presence of the molecule alone to determine the non-specific effect on cells, independent of dCK (non-specific toxicity) and ii) in the presence of an inhibitor of the De Novo pathway to determine the ability of molecules to inhibit dCK and decrease tumor proliferation (activity on dCK). The inhibitor of the De Novo pathway chosen for the experiments was thymidine (dT), a physiological inhibitor of ribonucleotide reductase which arrests cell proliferation in phase S. The dTTP produced via thymidine kinase from dT acts as a RNR inhibitor by an allosteric regulation of the R1 subunit (FIG. 1). The addition of the nucleoside deoxycytidine (dC) in the medium allows the rescue of cell proliferation by passing only through the salvage pathway, mediated by dCK. Therefore, cell proliferation under these conditions (+dT+dC) is dCK dependent and it is possible to determine the IC50 of dCK inhibitors on the inhibition of cell proliferation. Results are expressed as % cell proliferation relative to the control with DMSO in Table 1.
CCFR-CEM cells were grown at 37° C. in RPMI 1640 with L-glutamine, supplemented with 100 units/ml penicillin, […] streptomycin, and 10% heat-inactivated foetal calf serum. The experiments were carried out on 96-well plates under the following conditions: 14,000 cells per well, RPMI 1640 culture medium supplemented with 10% heat-inactivated foetal calf serum, 200 sM of dT, 1 sM of dC and a range of dilutions of each molecule ranging from 40 μM to 10 μM, depending on the activity of the molecules (final 0.2% DMSO). Cells were incubated for 72 hours under these different conditions and finally, incubated with 10 μl/well of CellTiter-Blue reagent (Promega) for 4 hours at 37° C. The amount of reduced dye formed by metabolically active cells was quantified by its fluorescence measured at 560 nm (excitation) and 590 nm (emission) in a microplate reader (CLARIOstar, BMG Labtech). A blank well without cells was used as a background control. Each experiment was performed at least three times (with technical triplicates) and data are presented as the mean f SD.

CCRF-CEM T-ALL cell line = test: In vivo systemic leukemia model: NSG mice inoculated intravenously with luciferase-expressing CCRF-CEM cells; conditions: for effect on disease progression / disease burden (bioluminescence): CCRF-CEM leukemia bearing NSG mice, dT 1.5 g/Kg, OR0642 40 mg/Kg (hydrochloride salt) i.p., FIG. 5; for day around which most of the mice died: the two components administered separately, FIG. 8
Protocol: Healthy 6 to 9 weeks-old male mice received 0.1×10^6 luciferase transduced-CCRF-CEM cells in the tail vein on Day 0 and were randomly assigned in four groups to receive intraperitoneal injections from Day 3 (Vehicle (n=8), dT (n=8), OR0642 (n=9) and dT+OR0642 (n=9)). […] Doses administered were: dT at 1.5 g/Kg, OR0642 at 40 mg/Kg and dT+OR0642 at 1.5 g/Kg and 40 mg/Kg, respectively. Vehicle was saline solution (0.9% NaCl) supplemented with 10% Kolliphor EL. OR0642 was administered in its hydrochloride salt form. Drug administration protocol is detailed in FIG. 4. Bioluminescence analysis was performed once/week using PhotonIMAGER Optima (Biospace Lab) following addition of endotoxin-free luciferin (30 mg/kg, Promega). Peripheral blood was obtained at Day 21 to determine the fraction of human blasts using flow cytometry. […] Analyses were performed on a Life Science Research Fortessa flow cytometer with DIVA software (BD Biosciences). The number of ALL cells/L peripheral blood was determined by using CountBright beads (Invitrogen, C36950) using described protocol. Daily monitoring of mice for symptoms of disease (ruffled coat, hunched back, weakness and reduced motility) determined the time of killing for injected animals with signs of distress. Kaplan-Meier curves, bioluminescence quantifications and statistical analyses were generated using Prism (Graphpad Software). Bioluminescence data were presented as the mean f SEM. Comparison of bioluminescence data at Day 21 was performed using One way ANOVA Kruskal-Wallis Test and Dunn's Multiple Comparison Test. Comparison of hCD45 populations was performed using One way ANOVA Kruskal-Wallis Test and Dunn's Multiple Comparison Test. Median survival times were compared using Log-Rank (Mantel-Cox) Test.

Compound | AFFINITY ASSAY +ΔTm (°) (dCK) | IC50 [1] [nM] | effect on disease progression / disease burden (bioluminescence) (CCRF-CEM T-ALL cell line) | day around which most of the mice died (CCRF-CEM T-ALL cell line) [days]
CCCN(c1nc(-c2nccc(N)n2)cs1)c1cc(-c2ccc(OCC(=O)N3CCN(C)CC3)cc2)ccc1C [OR0597, 4-(4-Aminopyrimidin-2-yl)-N-(4-methyl-4′-(2-(4-methylpiperazin-1-yl)-2-oxoethoxy)-[1,1′-biphenyl]-3-yl)-N-propylthiazol-2-amine] | 17.1 ± 0.1 | – | – | –
CCCN(c1nc(-c2nc(N)cc(N)n2)cs1)c1cc(-c2ccc(S(=O)(=O)N3CCN(C)CC3)cc2)ccc1C [OR0607, 2-(2-((4-Methyl-4′-((4-methylpiperazin-1-yl)sulfonyl)-[1,1′-biphenyl]-3-yl)(propyl)amino)thiazol-4-yl)pyrimidine-4,6-diamine] | 19.2 ± 0.6 | 31 ± 27 | – | –
Cc1ccc(-n2cc(CNS(C)(=O)=O)nn2)cc1N(CC(C)C)c1nc(-c2nc(N)cc(N)n2)cs1 [OR0609, N-((1-(3-((4-(4,6-Diaminopyrimidin-2-yl)thiazol-2-yl)(isobutyl)amino)-4-methylphenyl)-1H-1,2,3-triazol-4-yl)methyl) methanesulfonamide] | 13.5 ± 0.7 | 3180 ± 611 | – | –
CCCN(c1nc(-c2nc(N)cc(N)n2)cs1)c1cc(-c2ccc(S(=O)(=O)N3CCN(C)CC3)nc2)ccc1C [OR0627, 2-(2-((2-Methyl-5-(6-((4-methylpiperazin-1-yl)sulfonyl)pyridin-3-yl)phenyl)(propyl)amino)thiazol-4-yl)pyrimidine-4,6-diamine] | 17.5 ± 0.4 | 48 ± 17 | – | –
CCCN(c1nc(-c2nc(N)cc(N)n2)cs1)c1cc(-c2ccc(OCC(=O)N3CCN(C)CC3)nc2)ccc1C [OR0630, 2-((5-(3-((4-(4,6-Diaminopyrimidin-2-yl)thiazol-2-yl)(propyl)amino)-4-methylphenyl)pyridin-2-yl)oxy)-1-(4-methylpiperazin-1-yl)ethan-1-one] | 17.4 ± 0.2 | – | – | –
Cc1ccc(Br)cc1N(CC(C)C)c1nc(-c2nc(N)cc(N)n2)cs1 [OR0637-1, 2-(2-((5-Bromo-2-methylphenyl)(isobutyl)amino)thiazol-4-yl)pyrimidine-4,6-diamine] | 14.9 ± 0.2 | 8310 ± 1870 | – | –
CCCN(c1nc(-c2nc(N)cc(N)n2)cs1)c1cc(-c2ccc(S(=O)(=O)N3CCN(C)CC3)cc2C(F)(F)F)ccc1C [OR0642, 2-(2-((4-Methyl-4′-((4-methylpiperazin-1-yl)sulfonyl)-2′-(trifluoromethyl)-[1,1′-biphenyl]-3-yl)(propyl)amino)thiazol-4-yl)pyrimidine-4,6-diamine] | – | – | did not show any anti-proliferative effect | ~26
CCCN(c1nc(-c2nc(N)cc(N)n2)cs1)c1cc(-c2ccc(S(=O)(=O)N3CCN(CC(=O)O)CC3)cc2)ccc1C [OR0649, 2-(4-((3′-((4-(4,6-Diaminopyrimidin-2-yl)thiazol-2-yl)(propyl)amino)-4′-methyl-[1,1′-biphenyl]-4-yl)sulfonyl)piperazin-1-yl)acetic acid] | 17.6 ± 1.3 | 13400 ± 546 | – | –
CCCN(c1nc(-c2nc(N)cc(N)n2)cs1)c1cc(-c2cnc(S(=O)(=O)N3CCN(C)CC3)cc2C)ccc1C [OR0652, 2-(2-((2-Methyl-5-(4-methyl-6-((4-methylpiperazin-1-yl)sulfonyl)pyridin-3-yl)phenyl)(propyl)amino)thiazol-4-yl)pyrimidine-4,6-diamine] | 19.2 ± 0.1 | 7.3 ± 2.5 | – | –
CCCN(c1nc(-c2nc(N)cc(N)n2)cs1)c1cc(Br)ccc1C [OR0652-1, 2-(2-((5-Bromo-2-methylphenyl)(propyl)amino)thiazol-4-yl)pyrimidine-4,6-diamine] | 13.9 ± 0.2 | 11300 ± 1370 | – | –
CCCN(c1nc(-c2nc(N)cc(N)n2)cs1)c1cc(-c2ccc(S(=O)(=O)N3CCN(C)CC3)nc2C)ccc1C [OR0653, 2-(2-((2-Methyl-5-(2-methyl-6-((4-methylpiperazin-1-yl)sulfonyl)pyridin-3-yl)phenyl)(propyl)amino)thiazol-4-yl)pyrimidine-4,6-diamine] | 21.6 ± 0.4 | 2.8 ± 1.3 | – | –
CCCN(c1nc(-c2nc(N)cc(N)n2)cs1)c1cc(-c2cnc(OC)cc2C(F)(F)F)ccc1C [OR0654, 2-(2-((5-(6-Methoxy-4-(trifluoromethyl)pyridin-3-yl)-2-methylphenyl)(propyl)amino)thiazol-4-yl)pyrimidine-4,6-diamine] | 18.3 ± 0.4 | 610 ± 153 | – | –
CCCN(c1nc(-c2nc(N)cc(N)n2)cs1)c1cc(-c2cnc(O)cc2C(F)(F)F)ccc1C [OR0655, 2-(2-((5-(6-Hydroxy-4-(trifluoromethyl)pyridin-3-yl)-2-methylphenyl)(propyl)amino)thiazol-4-yl)pyrimidine-4,6-diamine] | 19.0 ± 0.0 | 251 ± 36 | – | –
CCCN(c1nc(-c2nc(N)cc(N)n2)cs1)c1cc(-c2cnc(S(=O)(=O)N3CCN(C)CC3)cc2C(F)(F)F)ccc1C [OR0656, 2-(2-((2-Methyl-5-(6-((4-methylpiperazin-1-yl)sulfonyl)-4-(trifluoromethyl)pyridin-3-yl)phenyl)(propyl)amino)thiazol-4-yl)pyrimidine-4,6-diamine] | 21.3 ± 0.8 | 3.8 ± 2 | – | –
CCCN(c1nc(-c2nc(N)cc(N)n2)cs1)c1cc(-c2ccc(S(=O)(=O)N3CCN(C)CC3)nc2C(F)(F)F)ccc1C [OR0657, 2-(2-((2-Methyl-5-(6-((4-methylpiperazin-1-yl)sulfonyl)-2-(trifluoromethyl)pyridin-3-yl)phenyl)(propyl)amino)thiazol-4-yl)pyrimidine-4,6-diamine] | 22.0 ± 0.4 | 1.6 ± 0.9 | – | –
CCCN(c1nc(-c2nc(N)cc(N)n2)cs1)c1cc(-c2ccc(S(=O)(=O)N3CCNCC3)nc2C(F)(F)F)ccc1C [OR0658, 2-(2-((2-Methyl-5-(6-(piperazin-1-ylsulfonyl)-2-(trifluoromethyl)pyridin-3-yl)phenyl)(propyl)amino)thiazol-4-yl)pyrimidine-4,6-diamine] | 22.4 ± 0.1 | 11.3 ± 2.1 | – | –
Cc1cn([C@H]2C[C@H](O)[C@@H](CO)O2)c(=O)[nH]c1=O [dT, 1-[(2R,4S,5R)-4-Hydroxy-5-(hydroxymethyl)oxolan-2-yl]-5-methylpyrimidine-2,4(1H,3H)-dione, reference compound] | – | – | scarcely reduced the disease burden | ~26
